Measurements as given in US20230295260A1, “GLP RECEPTOR AGONISTS” (HEPTARES THERAPEUTICS LIMITED, priority 2020, published 2023).
Starred links: 1 amine or outer side, 2 acyl side, 3 side chain; linkers in the order of their positions; H or OH if unused. Non-standard residues stand in square brackets, D forms with d. Residues, ends and D or L forms follow the SMILES beside them. Groups on a side chain read outwards from the residue. *: point of attachment. Malonyl(2,2-Me2,histaminyl) = CC(C)(C(=O)NCCc1cnc[nH]1)C(=O)*; Ala(1H-tetrazol-5-yl) = N[C@@H](Cc1nnn[nH]1)C(=O)O; C18 diacid = O=C(O)CCCCCCCCCCCCCCCCC(=O)*; γGlu = O=C(O)[C@H](CCC(=O)[*:2])N[*:1]; Nle = CCCC[C@H](N)C(=O)O; AEEA = NCCOCCOCC(=O)O; Alloc = C=CCOC(=O)*

What was measured:
human GLP1 receptor = target: T1, human GLP1 receptor (Homo sapiens, UniProt P43220); assay: cAMP accumulation assay (HTRF), functional agonism of human GLP1 receptor in HEK cells; assay type: cell-based; conditions: for Emax: HEK293, read-out: Human GLP-1R agonist cAMP Emax; for Emax / EC50: HEK cells, human GLP1 receptor BacMam, 45 min 37° C.; for EC50: read-out: Human GLP-1R agonist cAMP pEC50 (converted)
T1 construct: expressed in transfected cells; host or cells: HEK cells, BacMam virus transduction
T1 sequence (P43220 24-463): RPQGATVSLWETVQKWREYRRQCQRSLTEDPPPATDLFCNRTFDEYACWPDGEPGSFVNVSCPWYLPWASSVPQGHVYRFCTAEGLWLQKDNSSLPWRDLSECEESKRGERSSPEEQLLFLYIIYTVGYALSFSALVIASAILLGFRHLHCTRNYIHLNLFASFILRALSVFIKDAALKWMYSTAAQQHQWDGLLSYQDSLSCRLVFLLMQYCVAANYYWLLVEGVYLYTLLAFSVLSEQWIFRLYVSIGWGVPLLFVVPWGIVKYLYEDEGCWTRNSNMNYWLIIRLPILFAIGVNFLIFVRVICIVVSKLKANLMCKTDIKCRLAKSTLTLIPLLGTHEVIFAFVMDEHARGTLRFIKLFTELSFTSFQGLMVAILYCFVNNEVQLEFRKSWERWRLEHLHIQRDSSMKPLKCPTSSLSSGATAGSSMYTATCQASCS

human GLP2 receptor = target: T2, human GLP2 receptor (Homo sapiens, UniProt O95838); assay: cAMP accumulation assay (HTRF), functional agonism of human GLP2 receptor in HEK cells; conditions: for Emax: HEK293, read-out: Human GLP-2R agonist cAMP Emax;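 on all read-outs here: HEK cells transduced via BacMam to express human GLP2 receptor, agonist-stimulated cAMP measured by HTRF after 45 min at 37 °C in HBSS with 0.5 mM IBMX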
T2 sequence (O95838 1-553): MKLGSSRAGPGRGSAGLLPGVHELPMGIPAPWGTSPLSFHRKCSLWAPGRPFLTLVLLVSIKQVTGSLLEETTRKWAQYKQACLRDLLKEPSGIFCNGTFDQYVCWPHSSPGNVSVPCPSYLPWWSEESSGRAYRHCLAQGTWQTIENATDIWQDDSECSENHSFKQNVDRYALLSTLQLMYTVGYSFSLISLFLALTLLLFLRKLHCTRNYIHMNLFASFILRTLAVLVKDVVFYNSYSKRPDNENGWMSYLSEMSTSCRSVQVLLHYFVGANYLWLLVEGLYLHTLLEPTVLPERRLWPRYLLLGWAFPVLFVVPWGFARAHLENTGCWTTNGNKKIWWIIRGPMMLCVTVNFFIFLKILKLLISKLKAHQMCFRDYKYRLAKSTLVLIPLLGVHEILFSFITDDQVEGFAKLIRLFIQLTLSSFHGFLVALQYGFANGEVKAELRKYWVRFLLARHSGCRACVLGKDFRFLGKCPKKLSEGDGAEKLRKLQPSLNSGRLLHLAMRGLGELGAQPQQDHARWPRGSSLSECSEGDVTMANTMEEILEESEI
Description: The functional activity of the peptides were assessed using a HTRF cAMP assay. pEC50 values are quoted.
cAMP production upon agonist stimulation of human GLP2 or GLP1 receptor was assessed utilizing HiRange cAMP kit (Cisbio). In brief, HEK cells were infected with either human GLP2 or GLP1 receptor BacMam virus for 24 hours and frozen for later use in the assay. […] Cells were prepared in the assay buffer (HBSS (Lonza) supplemented with 0.5 mM IBMX (Tocris)). After 45 min incubation at 37° C., the reaction was stopped by addition of the HTRF detection reagents in the lysis buffer provided in the kit.

mouse GLP1 receptor = target: T3, mouse GLP1 receptor (Mus musculus, UniProt O35659); assay: cAMP accumulation assay (HTRF), functional agonism of mouse GLP1 receptor in HEK cells; assay type: cell-based; conditions: HEK cells transiently transfected, 45 min 37° C.; for Emax: HEK293, read-out: Mouse GLP-1 R agonist cAMP Emax
T3 construct: expressed in transfected cells; host or cells: HEK cells, transient transfection with GeneJuice
T3 sequence (O35659 22-463): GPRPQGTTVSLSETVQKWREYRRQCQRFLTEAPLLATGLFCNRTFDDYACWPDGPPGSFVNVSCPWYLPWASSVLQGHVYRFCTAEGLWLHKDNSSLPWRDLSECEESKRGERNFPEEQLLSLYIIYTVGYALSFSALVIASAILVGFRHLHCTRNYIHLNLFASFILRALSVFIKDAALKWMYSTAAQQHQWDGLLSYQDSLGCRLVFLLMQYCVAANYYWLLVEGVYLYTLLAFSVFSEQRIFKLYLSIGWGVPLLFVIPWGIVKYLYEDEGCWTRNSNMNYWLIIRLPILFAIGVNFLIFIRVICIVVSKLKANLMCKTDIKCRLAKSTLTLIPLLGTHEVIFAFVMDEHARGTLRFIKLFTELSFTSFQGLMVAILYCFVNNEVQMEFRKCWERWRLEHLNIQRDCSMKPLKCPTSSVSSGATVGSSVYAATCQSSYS

mouse GLP2 receptor = target: T4, mouse GLP2 receptor (Mus musculus, UniProt Q5IXF8); assay: cAMP accumulation assay (HTRF), functional agonism of mouse GLP2 receptor in HEK cells; assay type: cell-based; conditions: HEK cells transiently transfected, 45 min 37° C.; for Emax: HEK293, read-out: Mouse GLP-2R agonist cAMP Emax
T4 construct: expressed in transfected cells; host or cells: HEK cells, transient transfection with GeneJuice
T4 sequence (Q5IXF8 1-512): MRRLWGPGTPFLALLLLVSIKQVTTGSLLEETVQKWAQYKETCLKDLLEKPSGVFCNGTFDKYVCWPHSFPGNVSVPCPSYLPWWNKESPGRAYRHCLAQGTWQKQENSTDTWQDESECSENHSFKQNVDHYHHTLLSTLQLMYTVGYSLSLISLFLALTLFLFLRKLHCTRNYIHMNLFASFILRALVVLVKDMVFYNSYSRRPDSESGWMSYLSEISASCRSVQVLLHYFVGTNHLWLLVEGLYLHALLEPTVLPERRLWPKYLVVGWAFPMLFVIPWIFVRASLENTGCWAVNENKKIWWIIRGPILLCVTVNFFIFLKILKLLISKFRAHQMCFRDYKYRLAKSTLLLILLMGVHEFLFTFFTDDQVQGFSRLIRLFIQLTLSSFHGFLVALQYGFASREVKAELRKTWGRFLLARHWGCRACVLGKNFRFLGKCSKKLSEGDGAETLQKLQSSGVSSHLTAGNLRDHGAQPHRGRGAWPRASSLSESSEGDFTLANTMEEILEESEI

Row | Compound | Emax (human GLP1 receptor) | EC50 (human GLP1 receptor) | EC50 (human GLP2 receptor) | Emax (human GLP2 receptor) | Emax (mouse GLP1 receptor) | EC50 (mouse GLP1 receptor; read-out: Mouse GLP-1 R agonist cAMP pEC50 (converted)) | Emax (mouse GLP2 receptor) | EC50 (mouse GLP2 receptor; read-out: Mouse GLP-2R agonist cAMP pEC50 (converted)) | Human GLP-1R agonist cAMP Emax (human GLP1 receptor) | Human GLP-2R agonist cAMP Emax (human GLP2 receptor; HEK cells, human GLP2 receptor BacMam, 45 min 37° C.)
1 | C=CCOC(=O)NCCCC[C@H](NC(=O)[C@H](CC(C)C)NC(=O)[C@H](CC(=O)O)NC(=O)[C@H](CC(C)C)NC(=O)[C@@H](NC(=O)[C@@H](NC(=O)[C@@H](Cc1ccccc1)NC(=O)[C@H](CCCC)NC(=O)[C@H](CCC(=O)O)NC(=O)[C@H](CC(=O)O)NC(=O)[C@H](CO)NC(=O)[C@H](Cc1ccccc1)NC(=O)[C@H](CO)NC(=O)CNC(=O)[C@H](Cc1nn[nH]n1)NC(=O)C(C)(C)C(=O)NCCc1c[nH]cn1)[C@@H](C)O)[C@@H](C)CC)C(=O)N[C@@H](C)C(=O)N[C@@H](C)C(=O)N[C@@H](CCCCN)C(=O)N[C@@H](CC(=O)O)C(=O)N[C@@H](Cc1ccccc1)C(=O)N[C@H](C(=O)N[C@@H](CC(N)=O)C(=O)N[C@@H](Cc1c[nH]c2ccccc12)C(=O)N[C@@H](CC(C)C)C(=O)N[C@H](C(=O)N[C@@H](CCC(N)=O)C(=O)N[C@H](C(=O)N[C@@H](CCCCN)C(=O)N[C@H](C(=O)N[C@H](C(=O)N[C@@H](Cc1ccccc1)C(N)=O)[C@@H](C)O)[C@@H](C)CC)[C@@H](C)O)[C@@H](C)CC)[C@@H](C)CC [Example 2] ({Malonyl(2,2-Me2,histaminyl)}-[Ala(1H-tetrazol-5-yl)]GSFSDE[Nle][dF]TILDLK(Alloc)AAKDFINWLIQTKITF-NH2) | 94.7% | 7.94 nM | 0.0316 nM | 101% | 96.1% | 25.1 nM | 106% | 3.98 nM |  | 
2 | C=CCOC(=O)NCCCC[C@H](NC(=O)[C@H](CC(C)C)NC(=O)[C@H](CC(=O)O)NC(=O)[C@H](CC(C)C)NC(=O)[C@@H](NC(=O)[C@@H](NC(=O)[C@@H](Cc1ccccc1)NC(=O)[C@H](CCCC)NC(=O)[C@H](CCC(=O)O)NC(=O)[C@H](CC(=O)O)NC(=O)[C@H](CO)NC(=O)[C@H](Cc1ccccc1)NC(=O)[C@H](CO)NC(=O)[C@H](C)NC(=O)[C@H](Cc1nn[nH]n1)NC(=O)C(C)(C)C(=O)NCCc1c[nH]cn1)[C@@H](C)O)[C@@H](C)CC)C(=O)N[C@@H](C)C(=O)N[C@@H](C)C(=O)N[C@@H](CCCCN)C(=O)N[C@@H](CC(=O)O)C(=O)N[C@@H](Cc1ccccc1)C(=O)N[C@H](C(=O)N[C@@H](CC(N)=O)C(=O)N[C@@H](Cc1c[nH]c2ccccc12)C(=O)N[C@@H](CC(C)C)C(=O)N[C@H](C(=O)N[C@@H](CCC(N)=O)C(=O)N[C@H](C(=O)N[C@@H](CCCCN)C(=O)N[C@H](C(=O)N[C@H](C(=O)N[C@@H](CC(=O)O)C(N)=O)[C@@H](C)O)[C@@H](C)CC)[C@@H](C)O)[C@@H](C)CC)[C@@H](C)CC [Example 12] ({Malonyl(2,2-Me2,histaminyl)}-[Ala(1H-tetrazol-5-yl)]ASFSDE[Nle][dF]TILDLK(Alloc)AAKDFINWLIQTKITD-NH2) | 81.1% |  |  | 102% | 83.3% |  | 100% |  |  | 
3 | CCCC[C@H](NC(=O)[C@H](CCC(=O)O)NC(=O)[C@H](CC(=O)O)NC(=O)[C@H](CO)NC(=O)[C@H](Cc1ccccc1)NC(=O)[C@H](CO)NC(=O)CNC(=O)[C@H](Cc1nn[nH]n1)NC(=O)C(C)(C)C(=O)NCCc1c[nH]cn1)C(=O)N[C@H](Cc1ccccc1)C(=O)N[C@H](C(=O)N[C@H](C(=O)N[C@@H](CC(C)C)C(=O)N[C@@H](CC(=O)O)C(=O)N[C@@H](CC(C)C)C(=O)N[C@@H](CCCCNC(=O)CC[C@H](NC(=O)COCCOCCNC(=O)COCCOCCNC(=O)CCCCCCCCCCCCCCCCC(=O)O)C(=O)O)C(=O)N[C@@H](C)C(=O)N[C@@H](C)C(=O)N[C@@H](CCCCN)C(=O)N[C@@H](CC(=O)O)C(=O)N[C@@H](Cc1ccccc1)C(=O)N[C@H](C(=O)N[C@@H](CC(N)=O)C(=O)N[C@@H](Cc1c[nH]c2ccccc12)C(=O)N[C@@H](CC(C)C)C(=O)N[C@H](C(=O)N[C@@H](CCC(N)=O)C(=O)N[C@H](C(=O)N[C@@H](CCCCN)C(=O)N[C@H](C(=O)N[C@H](C(=O)N[C@@H](CC(=O)O)C(N)=O)[C@@H](C)O)[C@@H](C)CC)[C@@H](C)O)[C@@H](C)CC)[C@@H](C)CC)[C@@H](C)CC)[C@@H](C)O [Example 22] ({Malonyl(2,2-Me2,histaminyl)}-[Ala(1H-tetrazol-5-yl)]GSFSDE[Nle][dF]TILDLK([γGlu-AEEA-AEEA-C18 diacid])AAKDFINWLIQTKITD-NH2) | 87.6% | 3.16 nM | 0.0158 nM | 101% |  |  |  |  |  | 
4 | CCCC[C@H](NC(=O)[C@H](CCC(=O)O)NC(=O)[C@H](CC(=O)O)NC(=O)[C@H](CO)NC(=O)[C@H](Cc1ccccc1)NC(=O)[C@H](CO)NC(=O)CNC(=O)[C@H](Cc1nn[nH]n1)NC(=O)C(C)(C)C(=O)NCCc1c[nH]cn1)C(=O)N[C@H](Cc1ccccc1)C(=O)N[C@H](C(=O)N[C@H](C(=O)N[C@@H](CC(C)C)C(=O)N[C@@H](CC(=O)O)C(=O)N[C@@H](CC(C)C)C(=O)N[C@@H](CCCCNC(=O)CC[C@H](NC(=O)COCCOCCNC(=O)COCCOCCNC(=O)CCCCCCCCCCCCCCCCC(=O)O)C(=O)O)C(=O)N[C@@H](C)C(=O)N[C@@H](C)C(=O)N[C@@H](CCCCN)C(=O)N[C@@H](CC(=O)O)C(=O)N[C@@H](Cc1ccccc1)C(=O)N[C@H](C(=O)N[C@@H](CC(N)=O)C(=O)N[C@@H](Cc1c[nH]c2ccccc12)C(=O)N[C@@H](CC(C)C)C(=O)N[C@H](C(=O)N[C@@H](CCC(N)=O)C(=O)N[C@H](C(=O)N[C@@H](CCCCN)C(=O)N[C@H](C(=O)N[C@H](C(=O)N[C@@H](Cc1ccccc1)C(N)=O)[C@@H](C)O)[C@@H](C)CC)[C@@H](C)O)[C@@H](C)CC)[C@@H](C)CC)[C@@H](C)CC)[C@@H](C)O [Example 23] ({Malonyl(2,2-Me2,histaminyl)}-[Ala(1H-tetrazol-5-yl)]GSFSDE[Nle][dF]TILDLK([γGlu-AEEA-AEEA-C18 diacid])AAKDFINWLIQTKITF-NH2) | 89.8% | 12.6 nM | 0.0316 nM | 103% |  |  |  |  |  | 
5 | Exendin-4 [reference compound] |  |  |  |  |  |  |  |  | 99.7 | 1.6
